Data reported in the NIST ThermoML archive (doi:10.1016/j.fluid.2009.11.030).
± gives the expanded uncertainty stated by the source.

Settings: 101.33 kPa, Liquid, Vibrating tube method

SMILES	mass density (288.15 K) [kg/m3]	mass density (298.15 K) [kg/m3]	mass density (313.15 K) [kg/m3]	mass density (328.15 K) [kg/m3]	mass density (338.15 K) [kg/m3]	mass density (348.15 K) [kg/m3]
CC(C)CO [2-methyl-1-propanol]	806.121 ± 0.14	798.409 ± 0.14	786.515 ± 0.15	774.113 ± 0.15	765.452 ± 0.15	756.435 ± 0.16
CCCCO [butan-1-ol]	813.604 ± 0.11	805.984 ± 0.11	794.34 ± 0.12	782.323 ± 0.12	774.032 ± 0.13	765.48 ± 0.13
CCCCCCC [heptane]	688.254 ± 0.25	679.787 ± 0.25	666.893 ± 0.25	653.72 ± 0.26	644.767 ± 0.26	635.631 ± 0.26
CCOC(C)=O [ethyl acetate]	906.547 ± 0.11	894.381 ± 0.12	875.812 ± 0.12	856.813 ± 0.13	843.858 ± 0.13	830.622 ± 0.14
CCOC(=O)CC(=O)OCC [diethyl 1,3-propanedioate]	1060.33 ± 0.061	1049.6 ± 0.057	1033.5 ± 0.051	1017.34 ± 0.045	1006.5 ± 0.042	995.631 ± 0.041
CCCCCO [pentan-1-ol]	819.154 ± 0.14	811.8 ± 0.14	800.574 ± 0.14	789.007 ± 0.15	781.05 ± 0.15	772.873 ± 0.15
